Assay results as given in publication PMC4210897, “Antimicrobial Activity of Peptides Derived from Olive Flounder Lipopolysaccharide Binding Protein/Bactericidal Permeability-Increasing Protein (LBP/BPI)” (Marine Drugs, 2014).
Where no end group is shown, it is not given here.

Columns and labels:
[1] = system: E. coli ML35p outer membrane; test: Outer membrane permeabilization, NPN uptake assay; format: cell-based, Escherichia coli; conditions: peptide 40 μg/mL, 3 min after addition, 25 °C, 5 mM HEPES pH 7.2; order 2A > 6A > 1N > 5A; triplicate
Experimental: (§1) The outer membrane-permeabilizing activity of peptides was determined using the 1-N-phenylnapthylamine (NPN) uptake assay as described by Koo et al.. Briefly, an overnight culture of E. coli ML35p was transferred to fresh TSB medium and grown to A600 of 0.5–0.6. Cells were harvested, washed, and resuspended in the same volume of buffer (5 mM HEPES, pH 7.2, 5 mM KCN, and 5 mM glucose). Next, 20 μL of 0.5 mM NPN was added and mixed with 1 mL of cells, and peptide samples (40 μg/mL) were added after 3 min. The increase in fluorescence due to partitioning of NPN into the outer membrane was measured 3 min after the addition of peptides using a spectrofluorometer (LS 50B Fluorescence Spectrometer; PerkinElmer, Waltham, MA, USA) at an excitation wavelength of 350 nm and an emission wavelength of 420 nm at 25 °C. The extent of cytoplasmic membrane permeabilization was determined by measuring β-galactosidase activity in E. coli ML35p using O-nitrophenyl-β-D-galactopyranoside (ONPG), a nonmembrane-permeative chromogenic substrate. Mid-logarithmic phase E. coli cells were washed in 10 mM sodium phosphate buffer (NaPB), pH 7.4, and resuspended in the same buffer with 1.5 mM ONPG. The hydrolysis of ONPG to O-nitrophenol over time was monitored spectrophotometrically at 420 nm following the addition of peptide samples. Membrane permeabilization assays were performed in triplicate and the results were averaged.

[2] = system: E. coli ML35p inner cytoplasmic membrane; test: Cytoplasmic membrane permeabilization, β-galactosidase/ONPG assay; format: cell-based, Escherichia coli; conditions: peptide 40 μg/mL, 10 mM NaPB pH 7.4, 1.5 mM ONPG; triplicate
Experimental: as §1

C. albicans KCTC7965 = test: URDA, MEC; format: cell-based, Candida albicans; conditions: C. albicans KCTC7965, yeast, pH 6.6, 37 °C, triplicate averaged
Experimental: (§2) The antimicrobial activity of the purified peptide was assessed as described previously. We tested the synthetic peptides against several Gram-positive bacteria including two Bacillus subtilis strains, Micrococcus luteus, Staphylococcus aureus, and Streptococcus iniae, Gram-negative bacteria including three Escherichia coli strains, Aeromonas hydrophila, Edwardsiella tarda, Pseudomonas aeruginosa, Vibrio parahemolyticus, and Salmonella enteric, as well as the yeast Candida albicans. All strains were grown overnight for 18 h in trypticase soy broth (TSB) or sabouraud dextrose broth (SDB) at the appropriate temperature (25 °C for A. hydrophila, E. tarda, P. aeruginosa, S. iniae, and V. parahemolyticus and 37 °C for the other strains). After an overnight incubation, the bacterial and C. albicans suspensions were diluted to a McFarland turbidity standard of 0.5 (Vitek Colorimeter #52-1210; Hach, Loveland, CO, USA) corresponding to ~10^8 CFU/mL for bacteria and ~10^6 CFU/mL for C. albicans. One-half milliliter of diluted bacterial or C. albicans suspension was added to 9.5 mL of underlay gel containing 5 × 10^6 CFU/mL or 5 × 10^4 CFU/mL in 10 mM phosphate buffer (PB; pH 6.6) with 0.03% TSB or 0.03% SDB and 1% Type I (low EEO) agarose. The purified peptide was serially diluted twofold in 5 μL of acidified water (0.01% HAc), and each dilution was added to 2.5-mm-diameter wells made in the 1-mm-thick underlay gels. After incubation for 3 h at either 25 °C (for A. hydrophila, E. tarda, P. aeruginosa, S. iniae, and V. parahemolyticus) or 37 °C (the other strains), the bacterial or yeast suspension was overlaid with 10 mL of double-strength overlay gel containing 6% TSB or 6% SDB with 10 mM PB (pH 6.6) in 1% agarose. Plates were incubated for an additional 18–24 h, after which the clearing zone diameters were measured. After subtracting the diameter of the well, the clearing zone diameter was expressed in units (0.1 mm = 1 U).
(§3) All tested bacteria and yeast were prepared as described above. The minimal effective concentration (MEC, μg/mL) of the synthetic peptides was calculated as the x-intercept of a plot of units against the log10 of the peptide concentration. […] The antimicrobial assay was performed in triplicate and the results were averaged.

B. subtilis RM125 = test: URDA, MEC; format: cell-based, Bacillus subtilis; conditions: B. subtilis RM125, Gram +, pH 6.6, 37 °C, triplicate averaged
Experimental: as §2, §3

[3] = system: V. parahemolyticus KCCM41664; test: URDA, MEC; format: cell-based, Vibrio parahemolyticus; conditions: fish pathogen V. parahemolyticus KCCM41664, Gram −, pH 6.6, 25 °C, triplicate averaged
Experimental: as §2, §3

S. iniae FP5229 = test: URDA, MEC; format: cell-based, Streptococcus iniae; conditions: fish pathogen S. iniae FP5229, Gram +, pH 6.6, 25 °C, triplicate averaged
Experimental: as §2, §3

E. tarda H-4 = test: URDA, MEC; format: cell-based, Edwardsiella tarda; conditions: fish pathogen E. tarda H-4, Gram −, pH 6.6, 25 °C, triplicate averaged
Experimental: as §2, §3

A. hydrophila KCTC2358 = test: URDA, MEC; format: cell-based, Aeromonas hydrophila; conditions: fish pathogen A. hydrophila KCTC2358, Gram −, pH 6.6, 25 °C, triplicate averaged
Experimental: as §2, §3

S. aureus RM4220 = test: URDA, MEC; format: cell-based, Staphylococcus aureus; conditions: S. aureus RM4220, Gram +, pH 6.6, 37 °C, triplicate averaged
Experimental: as §2, §3

M. luteus ATCC9341 = test: URDA, MEC; format: cell-based, Micrococcus luteus; conditions: M. luteus ATCC9341, Gram +, pH 6.6, 37 °C, triplicate averaged
Experimental: as §2, §3

B. subtilis KCTC1021 = test: Ultrasensitive radial diffusion assay (URDA), MEC; format: cell-based, Bacillus subtilis; conditions: B. subtilis KCTC1021, Gram +, 10 mM PB pH 6.6, 37 °C, x-intercept of units vs log10 concentration, triplicate averaged
Experimental: as §2, §3

S. enterica KCTC2514 = test: URDA, MEC; format: cell-based, Salmonella enteric; conditions: S. enterica KCTC2514, Gram −, pH 6.6, 37 °C, triplicate averaged
Experimental: as §2, §3

P. aeruginosa KCTC2004 = test: URDA, MEC; format: cell-based, Pseudomonas aeruginosa; conditions: P. aeruginosa KCTC2004, Gram −, pH 6.6, 25 °C, triplicate averaged
Experimental: as §2, §3

E. coli ML35p = test: URDA, MEC; format: cell-based, Escherichia coli; conditions: Gram −, pH 6.6, 37 °C, triplicate averaged
Experimental: as §2, §3

E. coli KCTC1116 = test: URDA, MEC; format: cell-based, Escherichia coli; conditions: E. coli KCTC1116, Gram −, pH 6.6, 37 °C, triplicate averaged
Experimental: as §2, §3

Substance | Outer membrane permeabilization ability (NPN fluorescence) [1] | Inner cytoplasmic membrane permeabilization ability (ONPG hydrolysis, 420 nm) [2] | Minimal Effectives Concentration (C. albicans KCTC7965) [µg/mL] | Minimal Effectives Concentration (B. subtilis RM125) [µg/mL] | Minimal Effectives Concentration [3] [µg/mL] | Minimal Effectives Concentration (S. iniae FP5229) [µg/mL] | Minimal Effectives Concentration (E. tarda H-4) [µg/mL] | Minimal Effectives Concentration (A. hydrophila KCTC2358) [µg/mL] | Minimal Effectives Concentration (S. aureus RM4220) [µg/mL] | Minimal Effectives Concentration (M. luteus ATCC9341) [µg/mL] | Minimal Effectives Concentration (B. subtilis KCTC1021) [µg/mL] | Minimal Effectives Concentration (S. enterica KCTC2514) [µg/mL] | Minimal Effectives Concentration (P. aeruginosa KCTC2004) [µg/mL] | Minimal Effectives Concentration (E. coli ML35p) [µg/mL] | Minimal Effectives Concentration (E. coli KCTC1116) [µg/mL]
KLVKTQLKVLK [ofLBP 4N] | no inner or outer membrane permeability | no permeabilization ability | 125.0 | 250.0 | 1.3 | >250.0 | >250.0 | >250.0 | 62.5 | 250.0 | 62.5 | 250.0 | >250.0 | 250.0 | 1.5
KLVKTWLKVLK [ofLBP 5A] | significant outer membrane permeabilization ability | no permeabilization ability | 4.0 | 4.2 | 1.2 | 2.7 | 250.0 | 5.0 | 3.7 | 8.0 | 0.7 | 3.5 | 8.0 | 1.6 | 1.6
MKLVKTWLKVLK-NH2 [ofLBP 6A] | significant outer membrane permeabilization ability | strong permeabilization ability | 2.7 | 1.8 | 0.9 | 1.2 | 62.5 | 2.8 | 2.7 | 2.2 | 1.4 | 2.6 | 4.6 | 1.8 | 3.8
Piscidin 1 [reference compound] | strong permeabilization ability | strong cytoplasmic membrane permeabilizing activity | >62.5 | 4.5 | 1.8 | 6.5 | 125.0 | 10.0 | 2.2 | 2.3 | 2.3 | 7.0 | 8.0 | 2.3 | 7.0
RFPGLMMKLLV-NH2 (C-terminus assumed) [ofLBP 1N] | significant outer membrane permeabilization ability | strong permeabilization ability | 5.9 | 1.0 | 2.2 | 5.3 | 125.0 | 4.8 | 5.6 | 5.3 | 1.4 | 1.2 | 6.4 | 0.8 | 1.7
